This note sets out measurements from patent publication US20150141460A1, “Anti-inflammatory Compositions” (Cambridge Enterprise Limited, priority 2007, published 2015).

Test [1] has as its target target receptor (site of specific interaction of BN83250) (Homo sapiens, UniProt P30874). The experiment in a line: Competition for binding of [3H]-BN83250 to the target receptor on human myelomonocytic cell line. The conditions noted are these: competition with 10 nM [3H]-BN83250; non-linear modelling. On the procedure:
In this experiment, each reaction received 10 nM labelled BN83250 (a lactam BSCI which binds to the same receptor as compound (I′)), together with various competitors (100 μM-1 pM). The total specific binding was the amount displaced by a large excess (100 μM). Each bar represents the mean of three replicate determinations, with whiskers representing SEM. The Y-axis represents the radioactive counts bound in each experiments in units of counts per minute (cpm). The upper dashed line represents the total binding under the conditions of the experiment, while the lower dashed line represents the non-specific binding; the specific binding is represented by the distance between the dashed lines.
The general pharmacology of the five compounds was assessed, both against the specific target receptor, and against a wide variety of other receptors, many related in structure to the target receptor. Specific binding to the target receptor was assessed by competition for the binding of [^3H]-BN83250 (BN83250 is (S)-3-(2′,2′-dimethyldodecanoylamino)-caprolactam; Fox et al. J Med Chem. […]; 48(3):867-74; an agent known to bind to the same target receptor as the lactam BSCIs disclosed here). Binding to non-target receptors was assessed by competition for the binding of various specific radioligands for other receptors which are well known in the art. […]

Test [2] relates to LPS-induced TNF-α production. The experiment in a line: Sub-lethal LPS-induced endotoxemia in mice, serum TNF-α by ELISA. The test is classed as in vivo. The conditions noted are these: mice; doses above 1 μg/mouse; subcutaneous or oral route. On the procedure:
FIGS. 5A-5E show representative dose response curves for the inhibition of LPS induced TNF-α production in vivo in a murine model of sub-lethal endotoxemia. In each experiment, groups of six mice received pre-treatment with the five compounds (FIG. 5A: (II); FIG. 5B: (III); FIG. 5C: (V); FIG. 5D: (I′) and FIG. 5E: (IV)) at various doses, via either the oral route (circles) or subcutaneous route (triangles). 30-60 mins later, animals were challenged with LPS via the intraperitoneal route, and serum was prepared from a terminal bleed 3 hours later. The level of TNF-α in the blood was measured by ELISA, and the degree of inhibition of LPS-induced TNF-α production (calculated as the concentration of TNF-α in mice exposed to LPS minus the concentration of TNF-α in mice which received a sham exposure to endotoxin-free PBS) is shown on the Y-axis of each graph as the mean of six animals, with whiskers representing SEMs. The concentration of TNF-α in mice receiving LPS but no BSCI treatment was typically 5,000 to 6,000 pg/ml on average (compared to <10 pg/ml in unchallenged mice). The ED50 was estimated by linear interpolation of the presented graphs. The X-axis of each graph represents the dose of each compound administered to each mouse in the group in units of mg (1E-07 to 1).
In this assay, mice are given a non-specific pro-inflammatory challenge using bacterial endotoxin (LPS), and the extent of the systemic inflammatory response (measured by serum levels of the central pro-inflammatory cytokine TNF-α, which is essentially absent from the blood under normal conditions, but is rapidly elevated in response to a wide range of inflammatory stimuli). We have selected this model even though it is not, itself, a particularly close model of any human inflammatory disease condition, but because TNF-α is known to be important in very many diseases (including rheumatoid arthritis, autoimmune disorders, Crohn's Disease, atherosclerosis, asthma and many more). Consequently, agents which suppress TNF-α production are already used clinically (e.g. Enbrel™ and other anti-TNF-α antibody products) to treat a wide range of such diseases.
Mice (in groups of 6) were pretreated with various doses of each compound, either by the subcutaneous route 30 mins prior to LPS challenge, or by the oral route (via gavage) 60 mins prior to LPS. The mice were then challenged with an intraperitoneal injection of 750 μg of bacterial LPS and sacrificed 3 hours later. Serum was prepared from a terminal bleed by cardiac puncture, and the concentration of TNF-α is determined by ELISA (R&D Systems). In each experiment, a group of 6 mice receive no LPS to act as a negative control, and a second group receive only LPS (with no candidate inhibitor). […]

target receptor (site of specific interaction of BN83250), sequence (P30874 whole entry): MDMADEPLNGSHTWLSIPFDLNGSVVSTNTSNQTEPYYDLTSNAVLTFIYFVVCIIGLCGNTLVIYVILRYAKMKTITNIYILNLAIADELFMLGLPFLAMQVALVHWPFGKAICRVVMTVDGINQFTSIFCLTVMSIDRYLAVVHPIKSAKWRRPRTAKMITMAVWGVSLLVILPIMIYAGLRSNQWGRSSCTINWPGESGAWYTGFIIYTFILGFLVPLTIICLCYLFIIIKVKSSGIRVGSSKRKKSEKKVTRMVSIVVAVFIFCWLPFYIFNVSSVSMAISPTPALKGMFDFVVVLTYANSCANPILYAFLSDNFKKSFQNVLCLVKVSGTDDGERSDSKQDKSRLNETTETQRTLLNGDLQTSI

With `CC(C)(C)C(=O)N[C@H]1CCCNC1=O` [Compound (I′), (S)-3-(2′,2′-dimethylpropanoylamino)-tetrahydropyridin-2-one], the “Ka at target receptor (pM)” value in test [1] worked out at 50 pM. Also, the “suppression of LPS-induced TNF-α levels” value in test [2] is given as “more than 90%”.
